Laboratory results taken from ChEMBL document CHEMBL2073943, “Effect of the flavonoids biochanin A and silymarin on the P-glycoprotein-mediated transport of digoxin and vinblastine in human intestinal Caco-2 cells” (Pharm Res, 2003).

How the values were obtained:
Assay type in all cases: functional, cell-based
[1] = molecular target: T1, ATP-dependent translocase ABCB1 (Homo sapiens, UniProt P08183); experiment: TP_TRANSPORTER: increase in digoxin intracellular accumulation (digoxin: 11nM, biochanin A: 150 uM) in Caco-2 cells; details: caco-2, 150 µM
[2] = molecular target: T1, ATP-dependent translocase ABCB1; experiment: TP_TRANSPORTER: increase in […] intracellular accumulation (VBL: 27nM, biochanin A: 150 uM) in Caco-2 cells; details: caco-2, 150 µM
[3] = molecular target: T1, ATP-dependent translocase ABCB1; experiment: TP_TRANSPORTER: increase in digoxin intracellular accumulation (digoxin: 11nM, silymarin: 100 uM) in Caco-2 cells; details: caco-2, 100 µM
[4] = molecular target: T1, ATP-dependent translocase ABCB1; experiment: TP_TRANSPORTER: increase in […] intracellular accumulation (VBL: 27nM, silymarin: 100 uM) in Caco-2 cells; details: caco-2, 100 µM

T1 sequence (P08183 whole entry): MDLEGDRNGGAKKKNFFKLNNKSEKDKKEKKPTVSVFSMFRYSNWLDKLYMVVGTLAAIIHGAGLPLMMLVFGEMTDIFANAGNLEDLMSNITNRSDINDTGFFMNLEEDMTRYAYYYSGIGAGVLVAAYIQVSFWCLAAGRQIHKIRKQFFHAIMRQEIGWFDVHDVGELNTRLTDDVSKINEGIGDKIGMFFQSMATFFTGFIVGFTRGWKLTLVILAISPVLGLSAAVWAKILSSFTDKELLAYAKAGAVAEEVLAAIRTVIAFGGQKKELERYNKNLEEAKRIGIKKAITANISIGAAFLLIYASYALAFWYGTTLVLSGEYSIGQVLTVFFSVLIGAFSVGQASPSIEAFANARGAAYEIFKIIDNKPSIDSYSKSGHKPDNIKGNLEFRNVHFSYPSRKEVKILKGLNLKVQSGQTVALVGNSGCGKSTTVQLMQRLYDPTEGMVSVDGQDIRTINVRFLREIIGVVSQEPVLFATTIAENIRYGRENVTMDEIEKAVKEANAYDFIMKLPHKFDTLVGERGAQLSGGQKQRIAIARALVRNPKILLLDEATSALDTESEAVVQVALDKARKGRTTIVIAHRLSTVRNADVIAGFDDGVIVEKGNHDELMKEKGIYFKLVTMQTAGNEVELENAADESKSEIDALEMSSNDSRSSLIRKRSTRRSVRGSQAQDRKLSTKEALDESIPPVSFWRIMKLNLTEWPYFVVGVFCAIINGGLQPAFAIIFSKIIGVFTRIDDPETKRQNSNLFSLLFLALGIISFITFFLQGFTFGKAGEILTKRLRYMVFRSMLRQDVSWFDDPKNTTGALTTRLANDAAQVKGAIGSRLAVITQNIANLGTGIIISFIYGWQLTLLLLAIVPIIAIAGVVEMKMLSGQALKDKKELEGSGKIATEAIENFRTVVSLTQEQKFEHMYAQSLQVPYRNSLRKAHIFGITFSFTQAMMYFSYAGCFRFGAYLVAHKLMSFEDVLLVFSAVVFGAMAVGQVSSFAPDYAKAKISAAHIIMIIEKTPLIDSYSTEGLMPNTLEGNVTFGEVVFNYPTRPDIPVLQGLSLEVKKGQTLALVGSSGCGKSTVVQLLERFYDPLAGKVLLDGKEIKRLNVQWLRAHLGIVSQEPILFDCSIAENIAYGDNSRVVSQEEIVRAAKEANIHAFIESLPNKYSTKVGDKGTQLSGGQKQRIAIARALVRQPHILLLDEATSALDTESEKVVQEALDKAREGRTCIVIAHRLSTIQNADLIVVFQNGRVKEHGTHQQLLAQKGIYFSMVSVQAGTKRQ

Activity [1] | Activity [2] | Activity [3] | Activity [4] | Compound
inhibitor [+] | inhibitor [+] | – | – | COc1ccc(-c2coc3cc(O)cc(O)c3c2=O)cc1 [BIOCHANIN]
– | – | inhibitor [+] | inhibitor [+] | SILYMARIN
